In US20070258912A1, “Use of Fluorescent Whitening Agents as Antimicrobials” (priority 2004, published 2007):

Assays:
Assay type in all cases: cell-based
[1] = tested on: Corynebacterium minutissimum; experiment: MIC in the agar incorporation test; conditions: agar incorporation, Mueller Hinton agar, 24 hours at 37° C., read-out: MIC Corynebacterium minutissimum
Salmonella choleraesuis = experiment: MIC in the agar incorporation test; conditions: Salmonella enterica, Mueller Hinton agar, 24 hours at 37° C.
Method: (§1) Determination of Minimum Inhibitory Concentration (MIC Values) in the Agar Incorporation Test
(§2) 1% stock solutions of the substances are prepared in an appropriate solvent and diluted in serial dilutions 1:2 (to yield end concentrations in the agar of 500-1.9 ppm). 0.3 ml of each dilution step is mixed with 15 ml of nutrient medium while the latter is still liquid. After the nutrient medium has solidified, 10 μl of each test strain in 0.85% NaCl solution are spotted onto the agar medium.
(§3) The plates are incubated at 37° C. for 24 hours and then the highest dilution (lowest concentration) of the test substance at which growth is no longer observable is determined.
(§4) Test Organisms: Staphylococcus aureus ATCC 6583 Staphylococcus epidermidis ATCC 12228 Corynebacterium xerosis ATCC 373 Propionibacterium acnes ATCC Escherichia coli ATCC 10536 Salmonella choleraesuis ATCC Klebsiella pneumoniae ATCC *Candida albicans ATCC 10231
(§5) *Aspergillus niger ATCC 6275

Staphylococcus aureus [2] = experiment: MIC in the agar incorporation test; conditions: ATCC6583, agar incorporation, Mueller Hinton agar, 24 hours at 37° C., ATCC 6583, read-out: MIC Staphylococcus aureus
Method: as §1, §2, §3, §4, §5

Staphylococcus epidermis = experiment: MIC in the agar incorporation test; conditions: ATCC12228, agar incorporation, Mueller Hinton agar, 24 hours at 37° C., ATCC 12228, read-out: MIC Staphylococcus epidermis
Method: as §1, §2, §3, §4, §5

Escherichia coli [3] = experiment: MIC in the agar incorporation test; conditions: ATCC10536, agar incorporation, Mueller Hinton agar, 24 hours at 37° C., ATCC 10536, read-out: MIC Escherichia coli
Method: as §1, §2, §3, §4, §5

Corynebacterium xerosis [4] = experiment: MIC in the agar incorporation test; conditions: ATCC373, agar incorporation, Mueller Hinton agar, 24 hours at 37° C., ATCC 373, read-out: MIC Corynebacterium xerosis
Method: as §1, §2, §3, §4, §5

Propionibacterium acnes = experiment: MIC in the agar incorporation test; conditions: Cutibacterium acnes; agar incorporation, Mueller Hinton agar, 24 hours at 37° C.; read-out: MIC Propionibacterium acnes
Method: as §1, §2, §3, §4, §5

Klebsiella pneumoniae = experiment: MIC in the agar incorporation test; conditions: Mueller Hinton agar, 24 hours at 37° C.
Method: as §1, §2, §3, §4, §5

Actinomyces viscosus [5] = experiment: Microbicidal activity (suspension test, plate count); conditions: ATCC 43146
Method: (§6) Determination of Microbicidal Activity
(§7) 1 g stock solution with an appropriate concentration of test products are mixed with 8 g water and then inoculated with 1 ml of the selected test organisms. After a given contact period, aliquots are taken, inactivated and diluted. The number of surviving bacteria per ml incubation assay is determined by plate count. Proper inactivation by the inactivating medium used was checked each time.
(§8) Diluent: tryptone water for microorganisms
(§9) • (0.1% tryptone (Oxoid), 0.85% NaCl, deion. water) • deion. water for test substances • inactivating medium for detection of surviving microorganisms Growth medium: casein soybean peptone agar Inactivating Medium: tryptic soy broth special • (10% w/w Tween 80, 3% w/w Lecithine, 0.1% w/w L-Histidine, • 0.055% w/w Sodium thiosulfate) Test organisms: Staphylococcus aureus ATCC 6538 • Escherichia coli ATCC 10536 • Actinomyces viscosus ATCC 43146 • Corynebacterium xerosis ATCC 373 Test concentration: 120 ppm and 1200 ppm Contact times: 5 and 30 minutes at 22° C.
(§10) Incubation time: 24 h at 37° C.

Staphylococcus aureus [6] = experiment: as above; conditions: ATCC 6538
Method: as §6, §7, §8, §9, §10

Escherichia coli [7] = experiment: as above; conditions: ATCC 10536
Method: as §6, §7, §8, §9, §10

Corynebacterium xerosis [8] = experiment: as above; conditions: ATCC 373
Method: as §6, §7, §8, §9, §10

[9] = tested on: Actinobacillus actinomycetemcomitans; experiment: MIC against oral microorganisms via broth dilution; conditions: Aggregatibacter actinomycetemcomitans, ATCC43718; broth dilution 0.94-15 ppm, 24 h aerobically with 10% CO2, ATCC 43718
Method: (§11) Determination of the Minimum Inhibition Concentration (MIC Value) Against Different Oral Microorganisms Via Broth Dilution
(§12) 1500 ppm stock solutions of the substances are prepared in ethanol and pipetted into the growth medium to yield concentrations between 0.94 and 15 ppm. Bacteria are taken from blood agar plates with cotton swabs and adjusted in the appropriate growth medium to yield an optical density corresponding to McFarland 0.5. This suspension is directly used in the case of F. nucleatum and P. nigrescens. For the other strains, the suspension is diluted 1:20. 0.1 ml of these bacterial suspensions are added to 2 ml of the substance solutions. After the incubation time, the tubes are assessed for growth (turbidity).
(§13) Test Organisms: *Actinobacillus actinomycetemcomitans ATCC 43718 *Stretococcus gordonii ATCC 10558 *Streptococcus mutans ATCC 33402 Actinomyces viscosus ATCC 43146 Fusobacterium nucleatum subsp. polymorphum ATCC 10953 Porphyromonas gingivalis ATCC 33277
(§14) Prevotella nigrescens ATCC 33563

Streptococcus gordonii = experiment: MIC against oral microorganisms via broth dilution; conditions: ATCC10558, broth dilution 0.94-15 ppm, 24 h aerobically with 10% CO2, ATCC 10558, read-out: MIC Streptococcus gordonii
Method: as §11, §12, §13, §14

Actinomyces viscosus [10] = experiment: MIC against oral microorganisms via broth dilution; conditions: ATCC43146, broth dilution 0.94-15 ppm, 7-10 days at 37° C. anaerobically, ATCC 43146, read-out: MIC Actinomyces viscosus
Method: as §11, §12, §13, §14

Prevotella nigrescens = experiment: MIC against oral microorganisms via broth dilution; conditions: ATCC33563, broth dilution 0.94-15 ppm, Columbia bouillon, 7-10 days at 37° C. anaerobically, ATCC 33563, read-out: MIC Prevotella nigrescens
Method: as §11, §12, §13, §14

Streptococcus mutans = experiment: MIC against oral microorganisms via broth dilution; conditions: ATCC33402, broth dilution 0.94-15 ppm, 24 h aerobically with 10% CO2, ATCC 33402, read-out: MIC Streptococcus mutans
Method: as §11, §12, §13, §14

Porphyromnas gingivalis = experiment: MIC against oral microorganisms via broth dilution; conditions: broth dilution 0.94-15 ppm, Columbia bouillon, 7-10 days at 37° C. anaerobically, ATCC 33277; read-out: MIC Porphyromnas gingivalis
Method: as §11, §12, §13, §14

[11] = tested on: Fusobacterium nucleatum subsp. polymorphum; experiment: MIC against oral microorganisms via broth dilution; conditions: ATCC10953, broth dilution 0.94-15 ppm, 7-10 days at 37° C. anaerobically, ATCC 10953, read-out: MIC Fusobacterium nucleatum subsp. polymorphum
Method: as §11, §12, §13, §14

[12] = 1200 ppm, 5 min contact at 22° C.
[13] = 1200 ppm, 30 min contact at 22° C.

| SMILES | MIC [1] [µg/mL] | MIC (Salmonella choleraesuis) [µg/mL] | MIC (Staphylococcus aureus [2]) [µg/mL] | MIC (Staphylococcus epidermis) [µg/mL] | MIC (Escherichia coli [3]) [µg/mL] | MIC (Corynebacterium xerosis [4]) [µg/mL] | MIC (Propionibacterium acnes) [µg/mL] | MIC (Klebsiella pneumoniae) [µg/mL] | Microbicidal activity Actinomyces viscosus 120 ppm/5 min (Actinomyces viscosus [5]; 5 min contact at 22° C.) [log reductions] | Microbicidal activity Actinomyces viscosus 120 ppm/30 min (Actinomyces viscosus [5]; 30 min contact at 22° C.) [log reductions] | Microbicidal activity Staphylococcus aureus 120 ppm/5 min (Staphylococcus aureus [6]; 5 min contact at 22° C.) [log reduction] | Microbicidal activity Staphylococcus aureus 120 ppm/30 min (Staphylococcus aureus [6]; 30 min contact at 22° C.) [log reduction] | Microbicidal activity Escherichia coli 120 ppm/5 min (Escherichia coli [7]; 5 min contact at 22° C.) [log reduction] | Microbicidal activity Escherichia coli 120 ppm/30 min (Escherichia coli [7]; 30 min contact at 22° C.) [log reduction] | Microbicidal activity Corynebacterium xerosis 120 ppm/5 min (Corynebacterium xerosis [8]; 5 min contact at 22° C.) [log reductions] | Microbicidal activity Corynebacterium xerosis 120 ppm/30 min (Corynebacterium xerosis [8]; 30 min contact at 22° C.) [log reductions] | MIC (Streptococcus gordonii) [µg/mL] | MIC (Actinomyces viscosus [10]) [µg/mL] | MIC (Prevotella nigrescens) [µg/mL] | MIC (Streptococcus mutans) [µg/mL] | also measured |
| --- | --- | --- | --- | --- | --- | --- | --- | --- | --- | --- | --- | --- | --- | --- | --- | --- | --- | --- | --- | --- | --- |
| Cc1ccc(/C=C/c2ccc(/C=C/c3cccc(OCCCN(C)C)c3)cc2)c(OCCN(C)C)c1 [formula 29] | 6.3 | 200 | 3.1 | 3.1 | 200 | 3.1 | 3.1 | 25 | 2.5 | 5 | 3 | 5 | 5 | 5 | 5 | 5 | 7.5 | 3.8 | 1.9 | 3.8 | MIC [9]: 7.5 µg/mL; MIC (Porphyromnas gingivalis): 1.9 µg/mL; MIC [11]: 3.8 µg/mL |
| CCN(CC)CCOc1cccc(/C=C/c2ccc(/C=C/c3cccc(OCCN(CC)CC)c3OCCN(CC)CC)cc2)c1OCCN(CC)CC [formula 25] | 15.6 | 125 | 62.5 | 62.5 | 125 | 15.6 | 62.5 |  | 2.9 | 2.1 | 1 | 1 | 5 | 5 | 5 | 5 |  | 15 | 15 |  | Microbicidal activity Actinomyces viscosus 1200 ppm/5 min (Actinomyces viscosus [5]; [12]): 4 log reductions; Microbicidal activity Actinomyces viscosus 1200 ppm/30 min (Actinomyces viscosus [5]; [13]): 4 log reductions; Microbicidal activity Staphylococcus aureus 1200 ppm/5 min (Staphylococcus aureus [6]; [12]): 2.9 log reduction; Microbicidal activity Staphylococcus aureus 1200 ppm/30 min (Staphylococcus aureus [6]; [13]): 2.8 log reduction; Microbicidal activity Escherichia coli 1200 ppm/5 min (Escherichia coli [7]; [12]): 5 log reduction; Microbicidal activity Escherichia coli 1200 ppm/30 min (Escherichia coli [7]; [13]): 5 log reduction; Microbicidal activity Corynebacterium xerosis 1200 ppm/5 min (Corynebacterium xerosis [8]; [12]): 5 log reductions; Microbicidal activity Corynebacterium xerosis 1200 ppm/30 min (Corynebacterium xerosis [8]; [13]): 5 log reductions |
| Cc1ccc(/C=C/c2ccc(/C=C/c3ccc(C)c(OCCCN(C)C)c3)cc2)cc1OCCCN(C)C [formula 30] | 3.1 | 200 | 12.5 | 12.5 |  | 3.1 | 6.3 | 25 |  |  |  |  |  |  |  |  | 15 | 3.8 | 3.8 | 7.5 | MIC [9]: 15 µg/mL; MIC (Porphyromnas gingivalis): 3.8 µg/mL; MIC [11]: 3.8 µg/mL |
| CN(C)CCSc1ccccc1/C=C/c1ccc(/C=C/c2ccccc2SCCN(C)C)cc1 [formula 23] | 3.9 | 125 | 7.8 | 15.6 | 125 | 7.8 | 3.9 | 31.3 | 2 | 4 | 2 | 4 | 3.3 | 5 | 5 | 5 | 7.5 | 3.75 | 7.5 | 7.5 | MIC (Porphyromnas gingivalis): 3.75 µg/mL; MIC [11]: 7.5 µg/mL |
